Data on four molecules can be found in patent publication US5256657A, “Succinamide derivative matrix-metalloprotease inhibitors” (Sterling Winthrop, Inc., priority 1991, dated 1993).

Molecules are shown by their SMILES.

In the assay the target is T1, human fibroblast collagenase (Homo sapiens, UniProt P03956).
T1 construct: made in house; host or cells: human fibroblast (native enzyme by its name)
T1 sequence (P03956 100-469): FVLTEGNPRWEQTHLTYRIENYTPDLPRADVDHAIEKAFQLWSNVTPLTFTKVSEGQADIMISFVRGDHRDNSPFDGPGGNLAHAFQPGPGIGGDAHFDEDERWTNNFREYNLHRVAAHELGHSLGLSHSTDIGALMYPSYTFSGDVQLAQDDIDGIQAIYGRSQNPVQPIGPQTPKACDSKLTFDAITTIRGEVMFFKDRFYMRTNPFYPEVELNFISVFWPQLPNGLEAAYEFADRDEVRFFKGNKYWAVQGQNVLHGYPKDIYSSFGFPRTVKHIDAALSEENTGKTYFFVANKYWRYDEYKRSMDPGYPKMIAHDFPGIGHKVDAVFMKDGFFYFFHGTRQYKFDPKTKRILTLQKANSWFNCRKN
The experiment in a line: Inhibition of Human Fibroblast Collagenase (in vitro, H-Pro-Met-Ala-Leu-Trp-NHCH3 substrate, fluorescamine detection). In kind it is biochemical. The settings on record: trypsin-activated enzyme 25 nM; substrate 375 μM; pH 7.5; DMSO not exceeding 5%; 90 minutes; calculated from competitive inhibitor equation; read-out: IC50 (half-maximal inhibitory concentration), Inhibition of Human Fibroblast Collagenase. The method, then: As stated above the compounds of Formula I are matrix-metalloprotease inhibitors useful in treatment of disease in which matrix-metalloprotease promoted connective tissue remodelling is a causative factor, for example, rheumatoid arthritis and cancer.
Human fibroblast collagenase was purified as described by Fields et al. (The Journal of Biological Chemistry, vol. 262, pp. 6221-6226, 1987), activated with trypsin and used at a concentration of 25 nM. H-Pro-Met-Ala-Leu-Trp-NHCH3 (Netzel-Arnett et al., The Journal of Biological Chemistry, vol 266, pp. 6747-6755, 1991) was used as substrate at a concentration of 375 μM. Fluorescamine was used to detect the products of enzymolysis. […] Product concentrations were measured at intervals throughout the test period (90 minutes). The half-maximal inhibitory concentration (IC50) of the test compound was calculated from the equation for a competitive inhibitor using percent inhibition values between 20% and 80%. The products of parts B and C of example 2 and parts B and C. of example 3 were tested and the following results were obtained.

With `CC(C)C[C@H](CC(=O)NO)C(=O)N[C@@H](Cc1c[nH]c2ccccc12)C(=O)NCCSCCN(C)C` [Example 2C], the IC50 was 20 nM.
`CC(C)C[C@H](CC(=O)NO)C(=O)N[C@@H](Cc1c[nH]c2ccccc12)C(=O)NCCSCCN1CCOCC1` [Example 3C]: the IC50 is 15 nM.
Consider `CC(C)C[C@H](CC(=O)O)C(=O)N[C@@H](Cc1c[nH]c2ccccc12)C(=O)NCCSCCN(C)C` [Example 2B], for which the IC50 is 8800 nM.
The result for `CC(C)C[C@H](CC(=O)O)C(=O)N[C@@H](Cc1c[nH]c2ccccc12)C(=O)NCCSCCN1CCOCC1` [Example 3B] reads 4500 nM.
